Calls of active or inactive are those of the source.
Experiments:
[1] = molecular target: T1, Leucine aminopeptidase (Plasmodium falciparum 3D7, UniProt Q8IL11); assay: P. falciparum M17LAP inhibitors, primary screen, biochemical, fluorogenic H-Leu-NHMec substrate, 1536-well (AID 1619); assay type: functional
T1 sequence (Q8IL11 whole entry): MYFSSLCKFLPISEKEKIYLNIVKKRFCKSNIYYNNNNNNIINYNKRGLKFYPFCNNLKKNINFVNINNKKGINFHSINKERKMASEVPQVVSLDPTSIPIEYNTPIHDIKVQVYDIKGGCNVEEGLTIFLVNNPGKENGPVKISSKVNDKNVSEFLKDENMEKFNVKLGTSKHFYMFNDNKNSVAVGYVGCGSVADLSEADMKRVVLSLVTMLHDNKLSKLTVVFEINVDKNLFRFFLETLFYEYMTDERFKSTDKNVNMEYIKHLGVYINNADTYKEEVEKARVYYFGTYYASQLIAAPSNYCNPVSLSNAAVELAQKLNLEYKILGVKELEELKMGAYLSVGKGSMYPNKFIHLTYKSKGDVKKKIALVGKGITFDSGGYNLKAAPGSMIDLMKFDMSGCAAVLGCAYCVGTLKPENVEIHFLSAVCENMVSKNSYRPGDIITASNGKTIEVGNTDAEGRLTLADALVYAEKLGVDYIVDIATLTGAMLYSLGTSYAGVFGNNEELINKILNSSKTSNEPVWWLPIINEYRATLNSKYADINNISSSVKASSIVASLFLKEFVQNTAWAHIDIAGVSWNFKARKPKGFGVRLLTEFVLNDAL

[2] = molecular target: T2, Zinc finger protein mex-5 (Caenorhabditis elegans, UniProt Q9XUB2); assay: MEX-5/TCR-2 RNA interaction inhibitors, dose response, biochemical, C. elegans, fluorescence polarization (AID 1960)
T2 sequence (Q9XUB2 whole entry): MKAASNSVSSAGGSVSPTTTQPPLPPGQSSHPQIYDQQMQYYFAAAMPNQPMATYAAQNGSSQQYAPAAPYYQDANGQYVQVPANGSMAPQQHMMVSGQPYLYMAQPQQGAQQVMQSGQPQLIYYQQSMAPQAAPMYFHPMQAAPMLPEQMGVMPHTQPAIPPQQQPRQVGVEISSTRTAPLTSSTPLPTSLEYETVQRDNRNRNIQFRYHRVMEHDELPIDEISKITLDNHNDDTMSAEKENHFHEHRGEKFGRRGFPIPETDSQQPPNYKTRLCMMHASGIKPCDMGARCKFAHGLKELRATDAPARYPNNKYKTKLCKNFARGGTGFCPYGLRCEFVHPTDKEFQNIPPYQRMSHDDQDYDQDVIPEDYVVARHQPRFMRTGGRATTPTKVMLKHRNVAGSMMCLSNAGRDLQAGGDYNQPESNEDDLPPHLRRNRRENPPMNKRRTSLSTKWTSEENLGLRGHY

[3] = molecular target: ORF 73 (Human herpesvirus 8, UniProt O40947); assay: inhibitors of C-LANA binding to LBS DNA, dose response, biochemical, fluorescence polarization, cherry-picked samples (AID 504725); parameters: species or system Human gammaherpesvirus 8;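 further: fluorescence polarization of a labeled DNA duplex reporting LANA DNA binding; potency is for inhibitors that block LANA binding to the DNA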
[4] = molecular target: T3, Protein disulfide-isomerase (Homo sapiens, UniProt P07237); assay: PDI inhibitors, insulin aggregation turbidity, dose response, biochemical, absorbance, cherry-picked samples (AID 602350); assay type: functional
[5] = molecular target: T4, RNA-binding protein pos-1 (Caenorhabditis elegans, UniProt G5EF15); assay: inhibitors of POS-1/mex-3 RNA binding, dose response, biochemical, fluorescence polarization (AID 1964);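 further: purified POS-1 fused to maltose binding protein made in E. coli; potency of compounds blocking POS-1 binding to fluorescent RNA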
T4 sequence (G5EF15 whole entry): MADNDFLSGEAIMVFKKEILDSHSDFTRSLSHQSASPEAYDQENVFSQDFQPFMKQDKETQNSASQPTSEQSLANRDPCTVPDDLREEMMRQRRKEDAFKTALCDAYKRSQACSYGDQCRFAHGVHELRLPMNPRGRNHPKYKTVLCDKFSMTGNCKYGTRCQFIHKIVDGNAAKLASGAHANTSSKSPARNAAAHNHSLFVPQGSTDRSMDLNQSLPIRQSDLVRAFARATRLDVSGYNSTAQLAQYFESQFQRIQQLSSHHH

[6] = molecular target: T5, Histone-lysine N-methyltransferase NSD2 (Homo sapiens, UniProt O96028); assay type: biochemical
T5 sequence (O96028 whole entry): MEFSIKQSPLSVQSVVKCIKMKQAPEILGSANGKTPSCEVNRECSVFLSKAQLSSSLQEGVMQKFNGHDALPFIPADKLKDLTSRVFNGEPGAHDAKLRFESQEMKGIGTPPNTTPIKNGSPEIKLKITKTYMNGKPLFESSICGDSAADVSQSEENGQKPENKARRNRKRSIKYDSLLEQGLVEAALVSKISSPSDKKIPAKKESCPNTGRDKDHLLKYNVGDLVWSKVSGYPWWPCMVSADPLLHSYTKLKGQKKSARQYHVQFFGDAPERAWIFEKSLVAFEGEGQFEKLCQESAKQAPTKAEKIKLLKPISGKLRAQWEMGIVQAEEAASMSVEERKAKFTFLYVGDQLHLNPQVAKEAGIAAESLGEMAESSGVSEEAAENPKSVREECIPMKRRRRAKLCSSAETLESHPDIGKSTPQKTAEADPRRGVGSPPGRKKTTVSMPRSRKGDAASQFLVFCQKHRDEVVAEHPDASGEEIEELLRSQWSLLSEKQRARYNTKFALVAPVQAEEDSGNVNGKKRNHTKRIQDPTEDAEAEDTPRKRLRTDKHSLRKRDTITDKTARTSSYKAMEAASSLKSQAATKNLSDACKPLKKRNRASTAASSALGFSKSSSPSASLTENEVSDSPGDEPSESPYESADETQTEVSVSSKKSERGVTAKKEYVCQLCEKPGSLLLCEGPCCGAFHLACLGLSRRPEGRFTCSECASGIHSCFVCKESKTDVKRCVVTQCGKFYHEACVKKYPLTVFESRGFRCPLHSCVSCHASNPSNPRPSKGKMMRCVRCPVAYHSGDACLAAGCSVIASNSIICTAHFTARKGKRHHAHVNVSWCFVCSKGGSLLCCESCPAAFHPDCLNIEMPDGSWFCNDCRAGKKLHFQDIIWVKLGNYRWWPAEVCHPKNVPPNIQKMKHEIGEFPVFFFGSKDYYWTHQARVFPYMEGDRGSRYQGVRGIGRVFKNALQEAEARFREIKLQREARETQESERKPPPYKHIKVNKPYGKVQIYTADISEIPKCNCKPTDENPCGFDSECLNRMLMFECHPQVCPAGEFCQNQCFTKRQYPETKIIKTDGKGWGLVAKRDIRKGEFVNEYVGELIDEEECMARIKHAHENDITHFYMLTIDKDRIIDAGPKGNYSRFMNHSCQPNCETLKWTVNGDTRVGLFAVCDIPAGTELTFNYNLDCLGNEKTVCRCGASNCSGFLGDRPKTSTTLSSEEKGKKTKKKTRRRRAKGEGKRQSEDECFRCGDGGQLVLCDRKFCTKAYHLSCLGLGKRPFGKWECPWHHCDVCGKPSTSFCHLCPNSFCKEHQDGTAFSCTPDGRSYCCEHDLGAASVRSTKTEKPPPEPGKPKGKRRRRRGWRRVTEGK

[7] = molecular target: T3, Protein disulfide-isomerase; assay: PDI inhibitors, insulin turbidity readout, dose response, biochemical, absorbance, cherry-picked samples, set 2 (AID 624274); assay type: functional
[8] = molecular target: T6, Tyrosine-protein phosphatase non-receptor type 5 (Homo sapiens, UniProt P54829); assay: STEP phosphatase inhibitors, confirmation, biochemical, fluorescence intensity, uHTS hits (AID 602372); assay type: functional; details: read-out: IC50_Mean
T6 sequence (P54829 whole entry): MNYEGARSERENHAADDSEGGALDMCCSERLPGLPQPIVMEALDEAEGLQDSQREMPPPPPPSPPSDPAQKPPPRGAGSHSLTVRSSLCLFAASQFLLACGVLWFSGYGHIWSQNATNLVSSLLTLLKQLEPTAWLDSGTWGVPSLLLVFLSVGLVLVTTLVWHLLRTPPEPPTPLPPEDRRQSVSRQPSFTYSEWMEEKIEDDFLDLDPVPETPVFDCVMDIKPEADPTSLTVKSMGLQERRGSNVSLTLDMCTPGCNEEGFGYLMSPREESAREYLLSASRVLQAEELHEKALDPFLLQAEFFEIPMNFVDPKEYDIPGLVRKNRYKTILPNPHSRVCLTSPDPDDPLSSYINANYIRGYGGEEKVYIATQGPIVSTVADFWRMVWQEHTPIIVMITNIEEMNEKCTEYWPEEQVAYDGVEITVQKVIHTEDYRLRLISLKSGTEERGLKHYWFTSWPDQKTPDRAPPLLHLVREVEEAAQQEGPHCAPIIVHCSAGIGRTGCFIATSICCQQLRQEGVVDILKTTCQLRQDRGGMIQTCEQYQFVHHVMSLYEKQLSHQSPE

[9] = molecular target: T7, Tyrosine-protein phosphatase non-receptor type 22 (Homo sapiens, UniProt Q9Y2R2); assay: PTPN22 phosphatase inhibition, dose response, selectivity assay for STEP inhibitor project, biochemical (AID 624241); assay type: functional
T7 sequence (Q9Y2R2 whole entry): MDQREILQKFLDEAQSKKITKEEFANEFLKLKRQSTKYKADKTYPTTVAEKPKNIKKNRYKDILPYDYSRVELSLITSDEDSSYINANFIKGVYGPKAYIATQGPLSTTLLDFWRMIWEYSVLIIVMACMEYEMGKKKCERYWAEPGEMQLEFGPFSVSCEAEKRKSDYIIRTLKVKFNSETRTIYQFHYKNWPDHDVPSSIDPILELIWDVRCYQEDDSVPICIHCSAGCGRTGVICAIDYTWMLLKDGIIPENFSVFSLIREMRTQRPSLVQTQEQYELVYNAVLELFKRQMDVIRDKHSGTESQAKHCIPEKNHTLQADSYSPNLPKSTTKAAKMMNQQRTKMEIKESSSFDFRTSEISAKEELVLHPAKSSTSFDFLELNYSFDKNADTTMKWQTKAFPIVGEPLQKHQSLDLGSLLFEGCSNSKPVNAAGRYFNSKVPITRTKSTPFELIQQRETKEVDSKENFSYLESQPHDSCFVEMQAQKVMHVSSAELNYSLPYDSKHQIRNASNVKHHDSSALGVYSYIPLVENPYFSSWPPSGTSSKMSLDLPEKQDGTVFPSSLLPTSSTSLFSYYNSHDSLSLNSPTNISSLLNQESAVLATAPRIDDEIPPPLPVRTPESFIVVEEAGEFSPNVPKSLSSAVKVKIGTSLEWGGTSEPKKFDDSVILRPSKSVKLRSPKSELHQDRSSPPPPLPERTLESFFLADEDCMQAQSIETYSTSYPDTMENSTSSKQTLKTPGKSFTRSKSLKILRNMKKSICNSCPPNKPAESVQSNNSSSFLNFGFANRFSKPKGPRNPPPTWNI

[10] = molecular target: T8, Carboxy-terminal domain RNA polymerase II polypeptide A small phosphatase 1 (Homo sapiens, UniProt Q9GZU7); assay: inhibitors of CTDSP1, concentration-response testing, biochemical assay, absorbance-based, actives from ultra-high-throughput screening (AID 540297); assay type: functional
T8 sequence (Q9GZU7 whole entry): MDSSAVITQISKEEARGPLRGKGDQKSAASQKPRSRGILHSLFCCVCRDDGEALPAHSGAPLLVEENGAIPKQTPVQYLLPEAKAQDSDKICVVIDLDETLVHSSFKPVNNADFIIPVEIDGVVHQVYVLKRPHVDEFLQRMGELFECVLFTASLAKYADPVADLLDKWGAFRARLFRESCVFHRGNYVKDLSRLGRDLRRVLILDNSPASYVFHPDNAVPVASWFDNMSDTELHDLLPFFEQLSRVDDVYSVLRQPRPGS

[11] = molecular target: T9, Tyrosine-protein phosphatase non-receptor type 11 (Homo sapiens, UniProt Q06124); assay: SHP2 phosphatase inhibition, dose response, selectivity assay for STEP inhibitor project, biochemical (AID 602367); assay type: functional; details: read-out: IC50_Mean
T9 sequence (Q06124 whole entry): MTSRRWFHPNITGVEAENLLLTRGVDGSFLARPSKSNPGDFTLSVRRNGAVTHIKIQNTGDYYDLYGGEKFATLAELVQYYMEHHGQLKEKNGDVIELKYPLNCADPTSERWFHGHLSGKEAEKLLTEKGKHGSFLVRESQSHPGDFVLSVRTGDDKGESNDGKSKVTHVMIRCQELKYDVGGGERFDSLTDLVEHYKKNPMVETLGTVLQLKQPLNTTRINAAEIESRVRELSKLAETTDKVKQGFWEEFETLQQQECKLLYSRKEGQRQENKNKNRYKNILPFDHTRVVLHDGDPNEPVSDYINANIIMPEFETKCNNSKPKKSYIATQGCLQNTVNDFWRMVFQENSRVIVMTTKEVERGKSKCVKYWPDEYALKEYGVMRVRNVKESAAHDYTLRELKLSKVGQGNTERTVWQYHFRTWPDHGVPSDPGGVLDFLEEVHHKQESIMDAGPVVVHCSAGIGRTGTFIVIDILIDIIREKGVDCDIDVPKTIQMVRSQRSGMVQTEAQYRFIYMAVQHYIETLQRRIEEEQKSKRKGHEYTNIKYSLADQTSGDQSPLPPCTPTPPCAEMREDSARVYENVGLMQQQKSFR

[12] = molecular target: Dual specificity protein phosphatase 3 (Homo sapiens, UniProt P51452); assay: VHR phosphatase inhibition, dose response, selectivity assay for STEP inhibitor project, biochemical (AID 602374); assay type: functional; details: read-out: IC50_Mean
Chain of Dual specificity protein phosphatase 3 (P51452 whole entry): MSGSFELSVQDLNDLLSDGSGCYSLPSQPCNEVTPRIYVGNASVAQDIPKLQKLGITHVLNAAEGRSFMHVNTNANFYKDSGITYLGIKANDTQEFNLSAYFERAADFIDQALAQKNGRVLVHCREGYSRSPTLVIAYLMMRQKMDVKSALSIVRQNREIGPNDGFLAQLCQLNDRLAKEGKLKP

T3 sequence (P07237 whole entry, the tested form may be a part): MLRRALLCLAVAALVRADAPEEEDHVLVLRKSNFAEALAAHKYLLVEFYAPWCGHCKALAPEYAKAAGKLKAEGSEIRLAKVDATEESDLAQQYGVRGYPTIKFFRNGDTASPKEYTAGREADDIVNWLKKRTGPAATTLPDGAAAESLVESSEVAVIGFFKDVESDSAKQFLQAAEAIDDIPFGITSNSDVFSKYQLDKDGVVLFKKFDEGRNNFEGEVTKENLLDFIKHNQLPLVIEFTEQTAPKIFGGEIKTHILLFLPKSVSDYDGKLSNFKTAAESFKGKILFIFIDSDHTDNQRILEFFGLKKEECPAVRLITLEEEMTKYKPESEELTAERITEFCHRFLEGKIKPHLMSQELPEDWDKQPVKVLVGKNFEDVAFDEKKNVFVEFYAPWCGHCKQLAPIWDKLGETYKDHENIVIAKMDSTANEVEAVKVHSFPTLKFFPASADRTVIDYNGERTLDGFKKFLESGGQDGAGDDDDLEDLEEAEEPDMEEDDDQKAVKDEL
Chain of ORF 73 (O40947 whole entry): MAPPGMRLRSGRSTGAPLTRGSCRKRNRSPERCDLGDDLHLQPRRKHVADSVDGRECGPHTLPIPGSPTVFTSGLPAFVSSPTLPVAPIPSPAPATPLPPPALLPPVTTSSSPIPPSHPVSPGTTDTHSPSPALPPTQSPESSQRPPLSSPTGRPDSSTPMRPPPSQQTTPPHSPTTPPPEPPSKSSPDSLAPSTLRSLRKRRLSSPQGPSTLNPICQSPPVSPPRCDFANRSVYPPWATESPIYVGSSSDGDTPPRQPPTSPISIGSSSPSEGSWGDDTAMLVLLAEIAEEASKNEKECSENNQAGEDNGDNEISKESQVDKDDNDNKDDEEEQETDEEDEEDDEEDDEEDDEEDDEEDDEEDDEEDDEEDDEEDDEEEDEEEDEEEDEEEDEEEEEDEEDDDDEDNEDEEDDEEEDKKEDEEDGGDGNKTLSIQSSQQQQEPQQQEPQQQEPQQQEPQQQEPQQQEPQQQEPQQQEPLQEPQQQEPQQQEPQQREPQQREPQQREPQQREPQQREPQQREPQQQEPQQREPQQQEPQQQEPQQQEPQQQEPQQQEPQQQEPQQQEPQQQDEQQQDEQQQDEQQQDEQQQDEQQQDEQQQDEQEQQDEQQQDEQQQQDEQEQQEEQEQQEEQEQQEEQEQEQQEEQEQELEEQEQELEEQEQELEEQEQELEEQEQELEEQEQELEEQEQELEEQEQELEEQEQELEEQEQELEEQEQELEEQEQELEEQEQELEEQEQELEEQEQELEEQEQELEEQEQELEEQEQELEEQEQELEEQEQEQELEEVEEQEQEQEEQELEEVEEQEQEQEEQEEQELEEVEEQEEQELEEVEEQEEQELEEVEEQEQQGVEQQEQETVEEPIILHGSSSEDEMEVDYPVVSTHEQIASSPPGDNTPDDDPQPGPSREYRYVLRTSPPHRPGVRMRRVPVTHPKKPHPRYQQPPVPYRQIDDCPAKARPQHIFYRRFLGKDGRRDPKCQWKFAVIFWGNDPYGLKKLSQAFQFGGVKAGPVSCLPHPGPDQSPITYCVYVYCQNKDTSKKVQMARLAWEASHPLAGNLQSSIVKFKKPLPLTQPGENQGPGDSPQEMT

IC50 [1]	EC50 [2]	AC50 [3]	AC50 [4]	EC50 [5]	AC50 [6]	AC50 [7]	IC50 [8]	IC50 [9]	IC50 [10]	IC50 [11]	IC50 [12]	SMILES
12.8 µM (active)	61.6 µM (active)	2.89 µM (active)	< 0.009 µM (active)	270 µM (active)	7.35 µM (active)	0.009 µM (active)						O=C(O)CCCCCn1c(SCC(=O)c2ccc(O)c(O)c2)nc2ccsc2c1=O
							16.9 µM (active)	60.2 µM (inactive)	8.49 µM (active)	5.27 µM (active)	4.31 µM (active)	COc1ccc2cc3c(N)nn(C(=O)c4cccc(F)c4)c3nc2c1
